Data from patent US9035073B2, “3-phenyl-3-methoxy-pyrrolidine derivatives useful as modulators of cortical catecholaminergic neurotransmission” (INTEGRATIVE RESEARCH LABORATORIES SWEDEN AB, priority 2008, dated 2015).
Structures can show the parent of a compound that is named as a salt.

Key:
[1] = tested on: Serotonin (5-HT) in Prefrontal Cortex; test: Microdialysis in awake and freely moving rats, 5-HT in prefrontal cortex; type: in vivo, rat; settings: 50 μmol/kg s.c., awake freely moving rats
Source text: (§1) Male Sprague-Dawley rats weighing 220-320 g were used throughout the experiments. Before the experiment the animals were group housed, five animals in each cage, with free access to water and food. The animals were housed at least one week after arrival prior to surgery and use in the experiments. Each rat was used only once for microdialysis.
(§2) We use a modified version (Waters et al., 1994) of the I-shaped probe (Santiago M & Westerink B H C, 1990). The dialysis membrane we use is the AN69 polyacrylonitrile/sodiummethalylsulfonate copolymer (HOSPAL; o.d./i.d. 310/220 μm: Gambro, Lund, Sweden). In the dorsal striatum we use probes with an exposed length of 3 mm of dialysis membrane and in the prefrontal cortex the corresponding length is 2.5 mm. The rats were operated under isoflurane inhalationanesthesia while mounted into a Kopf stereotaxic instrument. Co-ordinates were calculated relative to bregma; dorsal striatum AP +1, ML ±2.6, DV −6.3; Pf cortex, AP +3.2, 8° ML ±1.2, DV −4.0 according to (Paxinos G & Watson C, 1986). The dialysis probe was positioned in a burr hole under stereotaxic guidance and cemented with phosphatine dental cement.
(§3) The rats were housed individually in cages for 48 h before the dialysis experiments, allowing them to recover from surgery and minimizing the risk of drug interactions with the anaesthetic during the following experiments. During this period the rats had free access to food and water. On the day of experiment the rats were connected to a micro perfusion pump via a swiwel and were replaced in the cage where they could move freely within its confinements. The perfusion medium was a Ringer's solution containing in mmol/l: NaCl; 140, CaCl2; 1.2, KCl; 3.0, MgCl2; 1.0 and ascorbic acid; 0.04 according to (Moghaddam B & Bunney B S, 1989). The pump was set to a perfusion speed of 2 μl/min and 40 μl samples were collected every 20 min. Each sample was analyzed at two HPLC systems. On an autoinjector (CMA 200) with a 10-port valve (Valco C10WE), holding two sample loops in series (4 μl and 20 μl), each brain dialysate sample is loaded in both loops simultaneously. […] The currents generated by the two EC detectors are converted to digital data and evaluated using Chromeleon software (Dionex) on a PC. The method sample turn over time was 4.5 min and two parallel experiments are normally analyzed simultaneously on the system. […]

[2] = tested on: Norepinephrine (NA) in Prefrontal Cortex; test: Microdialysis in awake and freely moving rats, NA in prefrontal cortex; type: in vivo, rat; settings: 50 μmol/kg s.c., awake freely moving rats
Source text: as §1, §2, §3

[3] = tested on: Dopamine (DA) in Prefrontal Cortex; test: Microdialysis in awake and freely moving rats, DA in prefrontal cortex; type: in vivo, rat; settings: 50 μmol/kg s.c., awake freely moving rats
Source text: as §1, §2, §3

[4] = tested on: Dopamine (DA) in Striatum; test: Microdialysis in awake and freely moving rats, DA in striatum; type: in vivo, rat; settings: 50 μmol/kg s.c., awake freely moving rats
Source text: as §1, §2, §3

[5] = tested on: Norepinephrine (NA) in Striatum; test: Microdialysis in awake and freely moving rats, NA in striatum; type: in vivo, rat; settings: 50 μmol/kg s.c., awake freely moving rats
Source text: as §1, §2, §3

[6] = tested on: Serotonin (5-HT) in Striatum; test: Microdialysis in awake and freely moving rats, 5-HT in striatum; type: in vivo, rat; settings: 50 μmol/kg s.c., awake freely moving rats
Source text: as §1, §2, §3

SMILES | melting point [°C] | 5-HT PFC ± SEM, maximum effect compared to baseline values [1] | NA PFC ± SEM, maximum effect compared to baseline values [2] | DA PFC ± SEM, maximum effect compared to baseline values [3] | DA Stri ± SEM, maximum effect compared to baseline values [4] | NA Stri ± SEM, maximum effect compared to baseline values [5] | 5-HT Stri ± SEM, maximum effect compared to baseline values [6]
CCN1CCC(OC)(c2ccc(F)c(F)c2)C1 (centres unmarked) (as salt: oxalic acid salt) [Example 10, 3-(3,4-difluorophenyl)-1-ethyl-3-methoxypyrrolidine] | 135 to 136 |  |  |  |  |  | 
COC1(c2cccc(Cl)c2F)CCNC1 (single isomer, unassigned; (+)) (as salt: oxalic acid salt) [Example 1, (+)-3-(3-chloro-2-fluorophenyl)-3-methoxypyrrolidine] | 183 to 185 |  |  |  |  |  | 
COC1(c2cc(F)cc(F)c2)CCNC1 (single isomer, unassigned; (+)) (as salt: oxalic acid salt) [Example 14, (+)-3-(3,5-difluorophenyl)-3-methoxypyrrolidine] | 185 to 187 |  |  |  |  |  | 
COC1(c2cccc(Cl)c2F)CCNC1 (single isomer, unassigned; (+)) [Example 1, (+)-3-(3-chloro-2-fluorophenyl)-3-methoxypyrrolidine] |  | 327 ± 58% of control | 660 ± 38% of control | 459 ± 103% of control | 122 ± 8% of control | 164 ± 22% of control | 350 ± 28% of control
COC1(c2cccc(F)c2F)CCNC1 (single isomer, unassigned; (+)) [Example 5, (+)-3-(2,3-difluorophenyl)-3-methoxypyrrolidine] |  | 260 ± 19% of control | 437 ± 25% of control | 353 ± 61% of control | 116 ± 0% of control | 168% of control | 296 ± 55% of control
CCN1CCC(OC)(c2cccc(F)c2F)C1 (single isomer, unassigned; (+)) [Example 6, (+)-3-(2,3-difluorophenyl)-1-ethyl-3-methoxypyrrolidine] |  | 157 ± 6% of control | 285 ± 17% of control | 297 ± 18% of control | 133 ± 9% of control | 113% of control | 138 ± 9% of control
CCN1CCC(OC)(c2cccc(F)c2F)C1 (single isomer, unassigned; (-)) (as salt: fumaric acid salt) [Example 8, (−)-3-(2,3-difluorophenyl)-1-ethyl-3-methoxypyrrolidine] | 105 to 107 |  |  |  |  |  | 
CCN1CCC(OC)(c2cccc(F)c2F)C1 (single isomer, unassigned; (-)) [Example 8, (−)-3-(2,3-difluorophenyl)-1-ethyl-3-methoxypyrrolidine] |  | 197% of control | 282% of control | 252% of control | 119 ± 3% of control | 169 ± 28% of control | 187% of control

Further lines, with some results ahead:

melting point [°C] | SMILES | 5-HT PFC ± SEM, maximum effect compared to baseline values [1] | NA PFC ± SEM, maximum effect compared to baseline values [2] | DA PFC ± SEM, maximum effect compared to baseline values [3] | DA Stri ± SEM, maximum effect compared to baseline values [4] | NA Stri ± SEM, maximum effect compared to baseline values [5] | 5-HT Stri ± SEM, maximum effect compared to baseline values [6]
94 to 98 | CCN1CCC(OC)(c2cccc(F)c2F)C1 (centres unmarked) (as salt: fumaric acid salt) [Example 13, 3-(2,3-difluorophenyl)-1-ethyl-3-methoxypyrrolidine] |  |  |  |  |  | 
131 to 133 | CCN1CCC(OC)(c2cccc(Cl)c2F)C1 (single isomer, unassigned; (+)) (as salt: fumaric acid salt) [Example 2, (+)-3-(3-chloro-2-fluorophenyl)-1-ethyl-3-methoxypyrrolidine] |  |  |  |  |  | 
104 to 106 | CCN1CCC(OC)(c2cccc(F)c2F)C1 (single isomer, unassigned; (+)) (as salt: fumaric acid salt) [Example 6, (+)-3-(2,3-difluorophenyl)-1-ethyl-3-methoxypyrrolidine] |  |  |  |  |  | 
182 to 184 | COC1(c2cccc(F)c2F)CCNC1 (single isomer, unassigned; (+)) (as salt: oxalic acid salt) [Example 5, (+)-3-(2,3-difluorophenyl)-3-methoxypyrrolidine] |  |  |  |  |  | 
